For assay [1], the target named is T1, human TDO (TDO-expressing HEK293 cells) (Homo sapiens, UniProt P48775).
T1 construct: expressed in transfected cells
In words: Cell based kynurenine assay, TDO-expressing HEK293 cell clones. Particulars: TDO-expressing HEK293 cells, 24 hours, geometric mean; read-out: HEK293 TDO Kynurenine GMean IC50 (μM) (Cellular Assay). An outline of the steps:
(§1)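 Cellular IDO1 and TDO activity is followed as kynurenine released by stably transfected HEK293 clones over 24 h with test compound. Controls are DMSO-treated cells and media alone.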

Assay [2] addresses T2, Human Tryptophan 2,3-dioxygenase (TDO) (Homo sapiens, UniProt P48775).
T2 construct: His tag (N); made in house; host or cells: E. coli
In words: Human TDO enzymatic assay (kynurenine level). The assay is classed as biochemical. The settings on record: 1 nM TDO, 350 μM L-Trp; geometric mean; read-out: TDO GMean: IC50 (μM) (Biochemical Assay). An outline of the steps: (§2)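 Compound is mixed with His-tagged enzyme from E. coli in pH 6.5 phosphate buffer containing ascorbate, methylene blue and catalase, at room temperature. IDO uses 6 nM enzyme and 10 μM Trp for 20 min. TDO uses 1 nM enzyme and 350 μM Trp for 70 min. TCA stops the reaction, and IC50 is derived from kynurenine levels.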

Assay [3] concerns the target T3, Human Indoleamine 2,3-dioxygenase (IDO) (Homo sapiens, UniProt P14902).
T3 construct: His tag (N); made in house; host or cells: E. coli
The experiment in a line: Human IDO enzymatic assay (kynurenine level). The assay is classed as biochemical. Particulars: 6 nM IDO, 10 μM L-Trp; geometric mean; read-out: IDO1 GMean: IC50 (μM) (Biochemical Assay). An outline of the steps: as §2

The target in assay [4] is T4, human IDO (IDO1-expressing HEK293 cells) (Homo sapiens, UniProt P14902).
T4 construct: expressed in transfected cells
The experiment in a line: Cell based kynurenine assay, IDO1-expressing HEK293 cell clones. Particulars: IDO1-expressing HEK293 cells, 24 hours, geometric mean; read-out: HEK293 IDO1 Kynurenine GMean IC50 (μM) (Cellular Assay). An outline of the steps:
as §1

Molecules are shown by their SMILES.

T2 sequence (P48775 whole entry): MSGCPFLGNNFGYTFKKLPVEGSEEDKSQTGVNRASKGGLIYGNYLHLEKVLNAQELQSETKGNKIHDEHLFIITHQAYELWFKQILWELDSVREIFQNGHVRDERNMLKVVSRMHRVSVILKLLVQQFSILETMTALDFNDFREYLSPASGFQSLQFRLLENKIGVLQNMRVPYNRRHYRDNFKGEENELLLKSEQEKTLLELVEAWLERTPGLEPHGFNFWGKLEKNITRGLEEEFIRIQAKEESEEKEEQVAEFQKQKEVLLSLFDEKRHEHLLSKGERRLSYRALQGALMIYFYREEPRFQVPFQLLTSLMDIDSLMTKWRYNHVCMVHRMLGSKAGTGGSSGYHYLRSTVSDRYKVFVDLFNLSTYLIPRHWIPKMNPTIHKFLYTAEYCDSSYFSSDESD
T1 sequence (P48775 whole entry): as above
T3 sequence (P14902 whole entry): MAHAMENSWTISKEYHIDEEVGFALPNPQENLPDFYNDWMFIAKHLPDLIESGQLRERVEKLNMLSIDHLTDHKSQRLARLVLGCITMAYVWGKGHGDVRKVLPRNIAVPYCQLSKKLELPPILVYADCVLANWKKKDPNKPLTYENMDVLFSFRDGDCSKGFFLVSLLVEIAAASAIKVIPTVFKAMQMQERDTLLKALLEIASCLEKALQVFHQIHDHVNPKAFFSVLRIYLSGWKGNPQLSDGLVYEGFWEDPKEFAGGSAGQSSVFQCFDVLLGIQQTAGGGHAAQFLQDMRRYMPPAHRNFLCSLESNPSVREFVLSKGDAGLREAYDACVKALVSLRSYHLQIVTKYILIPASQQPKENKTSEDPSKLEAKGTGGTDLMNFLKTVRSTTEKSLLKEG
T4 sequence (P14902 whole entry): as above

By IC50 is commonly meant the concentration that inhibits the measured activity by half. Turning to `CN(C)CCC(=O)N1CCC(C(C)(C)C(O)c2cc(Cl)cc3cn[nH]c23)CC1` (stereo not drawn) [Compound P-0456, 1-(4-(1-(5-chloro-1H-indazol-7-yl)-1-hydroxy-2-methylpropan-2-yl)piperidin-1-yl)-3-(dimethylamino) propan-1-one], the IC50 in assay [1], in assay [2], in assay [3] and in assay [4] was 0.0001 to 10 µM each time.

Regarding `CC1(C(=O)N2CCC(C(C)(C)C(O)c3cc(Cl)cc4cn[nH]c34)CC2)CC1` (stereo not drawn) [Compound P-0457, (4-(1-(5-chloro-1H-indazol-7-yl)-1-hydroxy-2-methylpropan-2-yl)piperidin-1-yl)(1-methylcyclopropyl) methanone], the IC50 in assay [1], in assay [2], in assay [3] and in assay [4] was 0.0001 to 10 µM each time.

Consider `CC(C)(C1CCN(C(=O)C2CCOCC2)CC1)C(O)c1cc(Cl)cc2cn[nH]c12` (stereo not drawn) [Compound P-0458, (4-(1-(5-chloro-1H-indazol-7-yl)-1-hydroxy-2-methylpropan-2-yl)piperidin-1-yl)(tetrahydro-2H-pyran-4-yl)methanone], for which the IC50 in assay [1], in assay [2], in assay [3] and in assay [4] was 0.0001 to 10 µM in each case.

For `CC(C)(C1CCN(C(=O)CC(F)(F)F)CC1)C(O)c1cc(Cl)cc2cn[nH]c12` (stereo not drawn) [Compound P-0459, 1-(4-(1-(5-chloro-1H-indazol-7-yl)-1-hydroxy-2-methylpropan-2-yl)piperidin-1-yl)-3,3,3-trifluoropropan-1-one], the IC50 in assay [1], in assay [2], in assay [3] and in assay [4] was 0.0001 to 10 µM throughout.

For `CCCC(=O)N1CCC(C(C)(C)C(O)c2cc(Cl)cc3cn[nH]c23)CC1` (stereo not drawn) [Compound P-0460, 1-(4-(1-(5-chloro-1H-indazol-7-yl)-1-hydroxy-2-methylpropan-2-yl)piperidin-1-yl)butan-1-one], the IC50 in assay [1], in assay [2], in assay [3] and in assay [4] was 0.0001 to 10 µM each time.

For the compound `CC(C)(C1CCN(C(=O)CO)CC1)C(O)c1cc(Cl)cc2cn[nH]c12` (stereo not drawn) [Compound P-0461, 1-(4-(1-(5-chloro-1H-indazol-7-yl)-1-hydroxy-2-methylpropan-2-yl)piperidin-1-yl)-2-hydroxyethan-1-one], the IC50 in assay [1], in assay [2], in assay [3] and in assay [4] was 0.0001 to 10 µM in each case.

With `O=C(NC1CCOCC1)N1CCC(C(F)(F)C(O)c2cc(Cl)cc3cn[nH]c23)CC1` (stereo not drawn) [Compound P-0462, 4-(2-(5-chloro-1H-indazol-7-yl)-1,1-difluoro-2-hydroxyethyl)-N-(tetrahydro-2H-pyran-4-yl)piperidine-1-carboxamide], the IC50 in assay [1], in assay [2], in assay [3] and in assay [4] was 0.0001 to 10 µM each time.

Regarding `O=C(NC1CCS(=O)(=O)CC1)N1CCC(C(F)(F)C(O)c2cc(Cl)cc3cn[nH]c23)CC1` (stereo not drawn) [Compound P-0463, 4-(2-(5-chloro-1H-indazol-7-yl)-1,1-difluoro-2-hydroxyethyl)-N-(1,1-dioxidotetrahydro-2H-thiopyran-4-yl)piperidine-1-carboxamide], the IC50 was above 10 µM in assay [1], 0.0001 to 10 µM in assay [2], 0.0001 to 10 µM in assay [3] and 0.0001 to 10 µM in assay [4].

Consider `O=C(NC1COC1)N1CCC(C(F)(F)C(O)c2cc(Cl)cc3cn[nH]c23)CC1` (stereo not drawn) [Compound P-0464, 4-(2-(5-chloro-1H-indazol-7-yl)-1,1-difluoro-2-hydroxyethyl)-N-(oxetan-3-yl)piperidine-1-carboxamide], for which the IC50 in assay [1], in assay [2], in assay [3] and in assay [4] was 0.0001 to 10 µM each time.
